# Assay results published in US20220089646A1 (THE UNIVERSITY OF QUEENSLAND, priority 2019, published 2022).
# *1 amine or outer side, *2 acyl side, *3 side chain or, on linkers, in order; H or OH if unused. Where a SMILES comes first, the peptide text is derived from it. Bridges are numbered along the chain shown (N, C = ends). [ ]: non-standard residue; d: D form. NHCH2CMe2S = CC(C)(CN[*:1])S[*:2]
# What was measured:
# trypsin = molecular target: T1, trypsin (Bos taurus, UniProt P00760); experiment: Trypsin stability; format: in vitro ADME
# T1 sequence (P00760 24-246): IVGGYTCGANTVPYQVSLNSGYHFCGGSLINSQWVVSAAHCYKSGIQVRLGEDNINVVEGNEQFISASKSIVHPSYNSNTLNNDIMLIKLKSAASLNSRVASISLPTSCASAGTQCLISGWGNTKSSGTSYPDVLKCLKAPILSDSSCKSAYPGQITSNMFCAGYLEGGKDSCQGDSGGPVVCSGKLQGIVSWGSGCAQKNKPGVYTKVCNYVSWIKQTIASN
# Experimental: Purified DP-7-11 (1 mg/mL) was dissolved in 0.1 M ammonium bicarbonate (NH4HCO3) buffer. To prepare a stock trypsin solution, 1 mg trypsin was dissolved in 50 mL of 0.1 M NH4HCO3 buffer. Equal volumes of the stock trypsin solution (62.5 μL) and DP-7-11 solution (62.5 μL) were incubated in 375 μL of 0.1M NH4HCO3 buffer in a 37° C. water bath. Aliquots of 100 μL were collected from this mixture at set time intervals of 0 min, up to 24 hours. Ice-cold acetonitrile containing 0.5% TFA was used to quench the reaction between DP-7-11 and trypsin at predetermined intervals, and just prior to HPLC or LC-MS analysis. The quenched samples were vortexed for 10 minutes followed by centrifugation at 12,000 rpm for a further 15 minutes. Supernatant was sampled and analysed using analytical RP-HPLC or LC-MS. Samples without trypsin acted as negative controls and were sampled at two intervals of 0 hour and 6 hours.
# As used in this serum and trypsin stability discussion, the term ‘degraded completely’ relates to the relevant compound being completely absent when tested. In other words, the compound being tested is not observed when tested.
# The serum and trypsin stability of DP-7-11 and DP-7-12 were tested (in some instances again) using LC-MS. The LC-MS utilized in this study was more sensitive than the LC-MS utilized in the above tests.
# DOP = DOP (Homo sapiens, UniProt P41143); experiment: cAMP assay with naloxone in HEK-DOP cells; format: cell-based; settings: naloxone 100 μM/well; for Mean cAMP response with naloxone: HEK-DOP, peptide at approximate IC80; for Naloxone reversal of cAMP inhibition through DOP: p<0.05
# Experimental: The preparation of buffers, cAMP standard curve, bead solutions were carried out identically to the agonist assay.
# Forskolin had been optimised at 50 μM/well. Thus, the 25 mM stocks were used to prepare 300 μL of 0.3 mM Forskolin. The concentration of Forskolin prepared was 6 times the required concentration in the well to account for further dilution in the well. Forskolin solution was then made from this and used to dilute the drug solutions.
# Approximate IC80 values were used for DP-7-11 and DP-7-12 to determine the ability of naloxone to reverse agonist inhibitory effect.
# The desired concentration of naloxone was 100 μM/well. Thus, 100 μL of 600 μM naloxone was made up from 100 mM stock. This was 6 times the desired in-well concentration to account for further dilution in the well by Forskolin, peptide, cells and acceptor bead solutions.
# Stimulation buffer was added to the 0.3 mM Forskolin solution to prepare the Forskolin only treatment solution as the positive control. Stimulation buffer used as the negative control.
# The DP series compounds were assayed as follows: The different cAMP standard solutions (3 μL/well) were plated in duplicate. Naloxone solution was then plated (1 μL/well) for each treatment (DP-7-11, DP-7-12, Forskolin only and stimulation buffer) in triplicate. In the same way, stimulation buffer was plated (1 μL/well) for the same number of wells. This made up two sets of wells, antagonist and non-antagonist. Following this, the acceptor bead and cell mixture (3 μL/well) was added to the treatment wells. The plates were then covered and centrifuged at 280 g for 30 seconds before incubation on an orbital shaker for 30 minutes at room temperature. The acceptor bead mixture (3 μL/well) was then added to the cAMP standard curve wells, whilst the drug mixed with Forskolin solutions (3 μL/well) were added to the respective treatment wells in triplicate. Again, the plates were centrifuged at 280 g for 30 seconds, then covered and incubated on the orbital shaker for another 30 minutes. Finally, the donor bead mixture (10 μL/well) was added to each well. This was incubated at room temperature overnight on the orbital shaker.
# The Ensight® Multimode Plate Reader was used to quantify the fluorescence units of each plate. Before reading, each plate was centrifuged at 280 g for 30 seconds. Using GraphPad Prism7® Software, cAMP concentrations were determined from the fluorescence data by fit spline/LOWESS analysis. The cAMP standard curve was used for interpolation at this point. The cAMP concentrations were then normalized to the highest cAMP concentration recorded and analyzed by one-way ANOVA for multiple comparisons. This analysis was corrected for multiple comparisons using Bonferroni. […]
# DOP, sequence (P41143 whole entry): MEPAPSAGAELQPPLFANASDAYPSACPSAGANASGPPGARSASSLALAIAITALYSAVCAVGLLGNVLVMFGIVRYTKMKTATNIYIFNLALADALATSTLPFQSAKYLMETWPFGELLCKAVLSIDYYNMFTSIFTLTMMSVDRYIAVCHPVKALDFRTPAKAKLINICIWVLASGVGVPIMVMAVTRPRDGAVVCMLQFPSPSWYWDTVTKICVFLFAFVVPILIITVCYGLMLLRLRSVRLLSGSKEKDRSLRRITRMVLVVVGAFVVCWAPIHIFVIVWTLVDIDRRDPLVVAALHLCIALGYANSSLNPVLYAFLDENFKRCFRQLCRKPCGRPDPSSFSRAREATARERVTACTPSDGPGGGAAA
smiles,measurement,setting,value
"CC1(C)CNC(=O)C[C@@H](NC(=O)[C@@H](N)Cc2ccc(O)cc2)C(=O)NCC(=O)N[C@@H](Cc2ccccc2)C(=O)N[C@H](C(=O)N[C@@H](CCCNC(=N)N)C(=O)N[C@@H](CCCNC(=N)N)C(N)=O)CSS1 [DP-7-12, c(Tyr-D(Asp)-Gly-Phe-SSa-Arg-Arg)] (H-Y[dD]GFCRR-NH2; linker 2-5 via NHCH2CMe2S)",Trypsin: complete degradation within,trypsin; 37° C.,within 30 min
same,Mean cAMP response with naloxone,DOP,62.68%
same,Naloxone reversal of cAMP inhibition through DOP,DOP,reversed by naloxone
"CC1(C)CNC(=O)C[C@H](C(=O)N[C@@H](CCCNC(=N)N)C(=O)N[C@@H](CCCNC(=N)N)C(N)=O)NC(=O)[C@H](Cc2ccccc2)NC(=O)CNC(=O)[C@@H](NC(=O)[C@@H](N)Cc2ccc(O)cc2)CSS1 [DP-7-11, c(Tyr-SSa-Gly-Phe-D(Asp)-Arg-Arg)]",Incubation in trypsin: peptide remaining,"trypsin; at 30 min, more sensitive LC-MS",25% remaining at
same,"remaining at 0.5 h, 0.125 mg/mL","trypsin; trypsin solution, at 30 min, more sensitive LC-MS, read-out: Incubation in trypsin: peptide remaining",~25%
same,Mean cAMP response with naloxone,DOP,77.18%
same,Naloxone reversal of cAMP inhibition through DOP,DOP,reversed by naloxone
